Test results as given in PubChem BioAssay (NCI).
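How tested: cells in 96-well plates exposed to compound for 48 hours at five concentrations. Here, GI50 denotes the concentration required for 50% inhibition of growth. TGI: concentration producing complete growth inhibition.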

What was measured:
Test in all cases: NCI anticancer screen, dose series, 48 h
786-0 renal = tested on: 786-0 renal
A498 renal = tested on: A498 renal
A549 NSCLC = tested on: A549 NSCLC
ACHN renal = tested on: ACHN renal
BT-549 breast = tested on: BT-549 breast
CAKI-1 renal = tested on: CAKI-1 renal
CCRF-CEM leukemia = tested on: CCRF-CEM leukemia
COLO 205 colon = tested on: COLO 205 colon
DU-145 prostate = tested on: DU-145 prostate
EKVX NSCLC = tested on: EKVX NSCLC
HCC-2998 colon = tested on: HCC-2998 colon
HCT-116 colon = tested on: HCT-116 colon
HCT-15 colon = tested on: HCT-15 colon
HL-60(TB) leukemia = tested on: HL-60(TB) leukemia
HOP-62 NSCLC = tested on: HOP-62 NSCLC
HOP-92 NSCLC = tested on: HOP-92 NSCLC
HS 578T breast = tested on: HS 578T breast
HT29 colon = tested on: HT29 colon
IGROV1 ovarian = tested on: IGROV1 ovarian
K-562 leukemia = tested on: K-562 leukemia
KM12 colon = tested on: KM12 colon
LOX IMVI melanoma = tested on: LOX IMVI melanoma
M14 melanoma = tested on: M14 melanoma
MALME-3M melanoma = tested on: MALME-3M melanoma
MCF7 breast = tested on: MCF7 breast
MDA-MB-231 breast = tested on: MDA-MB-231 breast
MDA-MB-435 = tested on: MDA-MB-435
MOLT-4 leukemia = tested on: MOLT-4 leukemia
NCI-H226 lung = tested on: NCI-H226 lung
NCI-H23 lung = tested on: NCI-H23 lung
NCI-H460 lung = tested on: NCI-H460 lung
NCI-H522 lung = tested on: NCI-H522 lung
NCI/ADR-RES ovarian = tested on: NCI/ADR-RES ovarian
OVCAR-3 ovarian = tested on: OVCAR-3 ovarian
OVCAR-4 ovarian = tested on: OVCAR-4 ovarian
OVCAR-5 ovarian = tested on: OVCAR-5 ovarian
OVCAR-8 ovarian = tested on: OVCAR-8 ovarian
PC-3 prostate = tested on: PC-3 prostate
RPMI-8226 leukemia = tested on: RPMI-8226 leukemia
RXF 393 renal = tested on: RXF 393 renal
SF-268 CNS = tested on: SF-268 CNS
SF-295 CNS = tested on: SF-295 CNS
SF-539 CNS = tested on: SF-539 CNS
SK-MEL-2 melanoma = tested on: SK-MEL-2 melanoma
SK-MEL-28 melanoma = tested on: SK-MEL-28 melanoma
SK-MEL-5 melanoma = tested on: SK-MEL-5 melanoma
SK-OV-3 ovarian = tested on: SK-OV-3 ovarian
SN12C renal = tested on: SN12C renal
SNB-19 CNS = tested on: SNB-19 CNS
SNB-75 CNS = tested on: SNB-75 CNS
SW-620 colon = tested on: SW-620 colon
T-47D breast = tested on: T-47D breast
TK-10 renal = tested on: TK-10 renal
U251 CNS = tested on: U251 CNS
UACC-257 melanoma = tested on: UACC-257 melanoma
UACC-62 melanoma = tested on: UACC-62 melanoma
UO-31 renal = tested on: UO-31 renal

CN(C)CCNc1c2c(c(NCCN(C)C)c3c(CN(C)C)c[nH]c13)C(=O)c1ccccc1C2=O
GI50 (786-0 renal): 0.356 µM
TGI (786-0 renal): 8.91 µM
GI50 (A498 renal): 18.7 µM
TGI (A498 renal): 33.6 µM
GI50 (A549 NSCLC): 2.88 µM
TGI (A549 NSCLC): 9.98 µM
GI50 (ACHN renal): 1.15 µM
TGI (ACHN renal): 5.88 µM
GI50 (BT-549 breast): 18.2 µM
TGI (BT-549 breast): 36.9 µM
GI50 (CAKI-1 renal): 4.73 µM
TGI (CAKI-1 renal): 11.5 µM
GI50 (CCRF-CEM leukemia): 0.639 µM
TGI (CCRF-CEM leukemia): 2.58 µM
GI50 (COLO 205 colon): 13.6 µM
TGI (COLO 205 colon): > 53.8 µM
GI50 (DU-145 prostate): 4.2 µM
TGI (DU-145 prostate): 15.1 µM
GI50 (EKVX NSCLC): 4.31 µM
TGI (EKVX NSCLC): 17.3 µM
GI50 (HCC-2998 colon): 2.14 µM
TGI (HCC-2998 colon): 8.61 µM
GI50 (HCT-116 colon): 0.676 µM
TGI (HCT-116 colon): > 100 µM
GI50 (HCT-15 colon): 1.35 µM
TGI (HCT-15 colon): 6.98 µM
GI50 (HL-60(TB) leukemia): 3.02 µM
TGI (HL-60(TB) leukemia): 7.48 µM
GI50 (HOP-62 NSCLC): 0.946 µM
TGI (HOP-62 NSCLC): 11.9 µM
GI50 (HOP-92 NSCLC): 2.91 µM
TGI (HOP-92 NSCLC): 15.8 µM
GI50 (HS 578T breast): 7.49 µM
TGI (HS 578T breast): 19 µM
GI50 (HT29 colon): 2.56 µM
TGI (HT29 colon): 27.4 µM
GI50 (IGROV1 ovarian): 2.22 µM
TGI (IGROV1 ovarian): 11.7 µM
GI50 (K-562 leukemia): 2.59 µM
TGI (K-562 leukemia): 14.6 µM
GI50 (KM12 colon): 1.6 µM
TGI (KM12 colon): 7.3 µM
GI50 (LOX IMVI melanoma): 1.05 µM
TGI (LOX IMVI melanoma): 2.73 µM
GI50 (M14 melanoma): 2.48 µM
TGI (M14 melanoma): 7.57 µM
GI50 (MALME-3M melanoma): 6.5 µM
TGI (MALME-3M melanoma): 15.7 µM
GI50 (MCF7 breast): 1.81 µM
TGI (MCF7 breast): 10 µM
GI50 (MDA-MB-231 breast): 1.61 µM
TGI (MDA-MB-231 breast): 9.39 µM
GI50 (MDA-MB-435): 2.75 µM
TGI (MDA-MB-435): 8.04 µM
GI50 (MOLT-4 leukemia): 0.582 µM
TGI (MOLT-4 leukemia): > 38.1 µM
GI50 (NCI-H226 lung): 15 µM
TGI (NCI-H226 lung): 35.5 µM
GI50 (NCI-H23 lung): 3.91 µM
TGI (NCI-H23 lung): 14.6 µM
GI50 (NCI-H460 lung): 2.2 µM
TGI (NCI-H460 lung): 9.49 µM
GI50 (NCI-H522 lung): 3.39 µM
TGI (NCI-H522 lung): 18.7 µM
GI50 (NCI/ADR-RES ovarian): 4.53 µM
TGI (NCI/ADR-RES ovarian): 20.5 µM
GI50 (OVCAR-3 ovarian): 4.29 µM
TGI (OVCAR-3 ovarian): 23.9 µM
GI50 (OVCAR-4 ovarian): 8.23 µM
TGI (OVCAR-4 ovarian): 34.1 µM
GI50 (OVCAR-5 ovarian): 16 µM
TGI (OVCAR-5 ovarian): 34.6 µM
GI50 (OVCAR-8 ovarian): 2.16 µM
TGI (OVCAR-8 ovarian): 14.2 µM
GI50 (PC-3 prostate): 0.612 µM
TGI (PC-3 prostate): 3.2 µM
GI50 (RPMI-8226 leukemia): 0.545 µM
TGI (RPMI-8226 leukemia): 2.26 µM
GI50 (RXF 393 renal): 3.71 µM
TGI (RXF 393 renal): 19.5 µM
GI50 (SF-268 CNS): 5.39 µM
TGI (SF-268 CNS): 22.1 µM
GI50 (SF-295 CNS): 3.14 µM
TGI (SF-295 CNS): 9.83 µM
GI50 (SF-539 CNS): 3.85 µM
TGI (SF-539 CNS): 10.2 µM
GI50 (SK-MEL-2 melanoma): 18.3 µM
TGI (SK-MEL-2 melanoma): 42.9 µM
GI50 (SK-MEL-28 melanoma): 16.7 µM
TGI (SK-MEL-28 melanoma): 38.2 µM
GI50 (SK-MEL-5 melanoma): 5.65 µM
TGI (SK-MEL-5 melanoma): 10.6 µM
GI50 (SK-OV-3 ovarian): 17.4 µM
TGI (SK-OV-3 ovarian): 40.2 µM
GI50 (SN12C renal): 1.18 µM
TGI (SN12C renal): 7.32 µM
GI50 (SNB-19 CNS): 16.1 µM
TGI (SNB-19 CNS): 40 µM
GI50 (SNB-75 CNS): 19.2 µM
TGI (SNB-75 CNS): 40.9 µM
GI50 (SW-620 colon): 2.7 µM
TGI (SW-620 colon): 9.72 µM
GI50 (T-47D breast): 22.3 µM
TGI (T-47D breast): 46.8 µM
GI50 (TK-10 renal): 2.08 µM
TGI (TK-10 renal): 7.06 µM
GI50 (U251 CNS): 2.57 µM
TGI (U251 CNS): 10.4 µM
GI50 (UACC-257 melanoma): 9.15 µM
TGI (UACC-257 melanoma): > 27.4 µM
GI50 (UACC-62 melanoma): 14.7 µM
TGI (UACC-62 melanoma): 29.9 µM
GI50 (UO-31 renal): 3.76 µM
TGI (UO-31 renal): 16.8 µM
